# From patent US4735955A, “2-substituted cycloheptoimidazole derivatives and anti-ulcerative agents containing the same” (Kotobuki Seiyaku Co., Ltd., priority 1985, dated 1988)
# Experiments:
# gastric-acid secretion = test: Gastric acid antisecretory activity, pylorus-ligated rat (method of Shay); assay type: in vivo; conditions: intraduodenal, 50 mg/kg intraduodenally just after pylorus ligation, 4 hours after ligation, read-out: Total Acid Inhibition
# Description: Gastric acid antisecretory activities
# Inhibitory activities of gastric-acid secretion are determined by the method of Shay (Gastroenterology 26, 906). Rats are fasted for 24 hours and pylorus ligation is carried out under light anesthesia.
# Drug is given intraduodenally just after the ligation. Four hours after ligation, the stomach of the rat is removed and the acidity of gastric juice is determined.
# [1] = Cytoprotective activity, inhibition of ethanol-induced ulcer (method of Robert); assay type: in vivo; conditions: rat, 100 mg/kg perorally 30 minutes before 1 ml absolute ethanol, stomach removed one hour after ethanol
# Description: Cytoprotective Activities
# Inhibitory activities of ethanol-induced ulcer are determined by the method of Robert (Gastroenterology 77, 433~443). Rats are fasted for 24 hours and are given 1 ml of absolute ethanol perorally. One hour after administration of ethanol, the stomach of the rat is removed. The length of each ulcer occurring in the grandulor stomach is determined and each ulcer in one rat is accounted as the ulcer-index. The test compounds are given perorally 30 minutes before absolute ethanol administration.
# (H^+,K^+)ATPase = target: T1, (H^+,K^+)ATPase (Sus scrofa, UniProt P19156); test: Inhibition of (H^+,K^+)ATPase activity (method of Fellenius); assay type: biochemical; conditions: 3 × 10^-4 M, pig gastric mucosa, pH 7.4, 37° C.
# T1 construct: (H^+,K^+)ATPase is prepared from the pig gastric mucosa; from tissue; host or cells: pig gastric mucosa
# Description: Inhibition of (H^+,K^+)ATPase activities. Inhibition of (H^+,K^+) ATPase activities is determined by the method of F. Fellenius et al., Nature 290, pp. 159~161, 1981. (H^+,K^+)ATPase is prepared from the pig gastric mucosa and the test compound is incubated with […], 40 mM of tris-buffer (pH 7.4), 2 mM of MgCl2 and 10 mM of KCl at 37° C. Inorganic phosphate occurring by stimulation of ATPase is determined.
# T1 sequence (P19156 2-1034 limits assumed): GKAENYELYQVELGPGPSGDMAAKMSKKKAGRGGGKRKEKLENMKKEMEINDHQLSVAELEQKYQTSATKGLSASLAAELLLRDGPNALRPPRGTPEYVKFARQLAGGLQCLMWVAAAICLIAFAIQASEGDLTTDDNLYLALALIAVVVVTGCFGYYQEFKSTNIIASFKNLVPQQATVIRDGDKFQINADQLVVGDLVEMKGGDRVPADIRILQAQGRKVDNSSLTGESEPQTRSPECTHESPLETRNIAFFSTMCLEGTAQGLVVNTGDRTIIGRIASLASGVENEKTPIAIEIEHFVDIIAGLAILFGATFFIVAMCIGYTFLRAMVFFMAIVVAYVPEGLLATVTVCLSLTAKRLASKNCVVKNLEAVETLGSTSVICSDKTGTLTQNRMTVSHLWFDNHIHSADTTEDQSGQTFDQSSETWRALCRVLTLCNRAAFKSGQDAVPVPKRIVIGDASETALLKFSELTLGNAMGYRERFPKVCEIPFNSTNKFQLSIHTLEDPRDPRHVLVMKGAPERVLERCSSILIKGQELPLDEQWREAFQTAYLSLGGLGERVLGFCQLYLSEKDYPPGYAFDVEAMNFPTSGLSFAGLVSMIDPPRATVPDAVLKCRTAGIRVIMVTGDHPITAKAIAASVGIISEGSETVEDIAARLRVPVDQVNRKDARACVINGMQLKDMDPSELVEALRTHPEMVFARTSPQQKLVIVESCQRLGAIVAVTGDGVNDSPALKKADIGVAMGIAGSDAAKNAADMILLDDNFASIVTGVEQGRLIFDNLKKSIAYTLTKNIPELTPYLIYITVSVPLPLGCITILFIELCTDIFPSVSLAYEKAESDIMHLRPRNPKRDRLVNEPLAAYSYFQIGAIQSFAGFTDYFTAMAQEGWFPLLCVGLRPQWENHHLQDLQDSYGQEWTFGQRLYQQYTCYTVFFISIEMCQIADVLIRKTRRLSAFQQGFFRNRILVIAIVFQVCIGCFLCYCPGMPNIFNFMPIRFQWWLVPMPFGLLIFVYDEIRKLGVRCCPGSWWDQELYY
# T1 sequence (P18434 whole entry partner): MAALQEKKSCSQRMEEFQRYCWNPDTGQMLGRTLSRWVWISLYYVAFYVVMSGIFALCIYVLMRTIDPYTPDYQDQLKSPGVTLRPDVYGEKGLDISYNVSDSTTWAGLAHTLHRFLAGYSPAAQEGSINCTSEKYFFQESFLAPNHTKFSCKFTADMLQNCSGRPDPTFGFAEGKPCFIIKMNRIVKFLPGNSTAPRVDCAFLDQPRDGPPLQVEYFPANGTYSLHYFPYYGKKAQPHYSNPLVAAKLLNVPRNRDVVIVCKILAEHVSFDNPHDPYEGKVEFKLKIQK
Compound,inhibition in vivo at 50 mg/kg (gastric-acid secretion),Inhibition of ethanol-induced ulcer [1],"inhibition at 300 µM ((H^+,K^+)ATPase)"
"CC(C)c1ccc2nc(SCc3ccccn3)nc-2cc1 [Compound 1, 2-(2-Pyridyl)methylthio-6-isopropyl-cycloheptoimidazole]",80.5%,,
"c1ccc2nc(SCCn3cnc4ccccc43)nc-2cc1 [Compound 3, 2-(1-Benzimidazolyl)ethylthio-cycloheptoimidazole]",22.4%,,
"CSc1nnc(CSc2nc3cccccc-3n2)s1 [Compound 8, 2-(2-Methylthio-1,3,4-thiadiazole-5-yl)methylthio-cycloheptoimidazole]",20.6%,,
"c1ccc2nc(SCc3cccnc3)nc-2cc1 [Compound 9, 2-(3-Pyridyl)methylthio-cycloheptoimidazole]",,83.1%,
"c1ccc2nc(SCc3ccn[nH]3)nc-2cc1 [Compound 10, 2-(5-Pyrazolyl)methylthio-cycloheptoimidazole]",54.4%,,
"c1ccc2nc(SCc3ccncc3)nc-2cc1 [Compound 12, 2-(4-Pyridyl)methylthio-cycloheptoimidazole]",66.8%,,
"c1ccc2nc(SCc3c[nH]cn3)nc-2cc1 [Compound 13, 2-(4-imidazolyl)methylthio-cycloheptoimidazole]",66.5%,88.1%,
"Nc1nc(CSc2nc3cccccc-3n2)cs1 [Compound 14, 2-(2-Aminothiazole-4-yl)methylthio-cycloheptoimidazole]",,90.3%,
"CC(C)c1ccc2nc(SCc3csc(N)n3)nc-2cc1 [Compound 15, 2-(2-Aminothiazole-4-yl)methylthio-6-isopropyl-cycloheptoimidazole]",21%,90.0%,
"COc1ccc(CSc2nc3cccccc-3n2)cc1 [Compound 26, 2-(p-Methoxyphenyl)methylthio-cycloheptoimidazole]",81.6%,,
"Clc1ccc(CSc2nc3cccccc-3n2)cc1 [Compound 28, 2-(p-Chlorophenyl)methylthio-cycloheptoimidazole]",39.1%,,
"Nc1cccc(CSc2nc3cccccc-3n2)c1 [Compound 30, 2-(m-Aminophenyl)methylthio-cycloheptoimidazole]",52.5%,,
"c1ccc(CSc2nc3cccccc-3n2)cc1 [Compound 31, 2-(Phenyl)methylthio-cycloheptoimidazole]",78.9%,,
"Cc1oncc1CSc1nc2cccccc-2n1 [Compound 34, 2-(5-Methylisoxazole-4-yl)methylthio-cycloheptoimidazole]",70.1%,,
"Cc1nc(-c2ccccc2)c(CSc2nc3cccccc-3n2)o1 [Compound 37, 2-(2-Methyl-4-Phenyloxazole-5-yl)methylthio-cycloheptoimidazole]",,,48%
"COc1ccc(C[S+]([O-])c2nc3cccccc-3n2)c(OC)c1OC (centres unmarked) [Compound 44, 2-(2,3,4-Trimethoxyphenyl)methylthio-cycloheptoimidazole-S-oxide]",89.8%,,25%
"Cc1ccc(C[S+]([O-])c2nc3cccccc-3n2)cc1 (centres unmarked) [Compound 45, 2-(p-Tolyl)methylthio-cycloheptoimidazole-S-oxide]",90.7%,,
"COc1ccc(C[S+]([O-])c2nc3cccccc-3n2)cc1 (centres unmarked) [Compound 47, 2-(p-Methoxyphenyl)methylthio-cycloheptoimidazole-S-oxide]",90.7%,,32%
"CN(C)c1ccc(C[S+]([O-])c2nc3cccccc-3n2)cc1 (centres unmarked) [Compound 49, 2-(p-Dimethylaminophenyl)methylthio-cycloheptoimidazole-S-oxide]",33.6%,,
"[O-][S+](Cc1c[nH]cn1)c1nc2cccccc-2n1 (centres unmarked) [Compound 51, 2-(4-imidazolyl)methylthio-cycloheptoimidazole-S-oxide]",63.6%,,
"Cc1cc(C[S+]([O-])c2nc3cccccc-3n2)on1 (centres unmarked) [Compound 52, 2-(3-Methylisoxazole-5-yl)methylthio-cycloheptoimidazole-S-oxide]",96.9%,,
"Cc1noc(C)c1C[S+]([O-])c1nc2cccccc-2n1 (centres unmarked) [Compound 53, 2(3,5-Dimethylisoxazole-4-yl)methylthio-cycloheptoimidazole-S-oxide]",95.7%,,45%
"Nc1ccccc1CSc1nc2cccccc-2n1 [Compound 57, 2-(o-aminophenyl)methylthio-cycloheptoimidazol]",92.9%,,46%
